Source: patent US20220177466A1, “DEGRADERS OF KELCH-LIKE ECH-ASSOCIATED PROTEIN 1 (KEAP1)” (DANA-FARBER CANCER INSTITUTE, INC., priority 2019, published 2022)

Columns and labels:
Assay type in all cases: cell-based
KEAP1 [1] = target: T1, KEAP1 (Homo sapiens, UniProt Q14145); assay: KEAP1 degradation in wild-type (WT) MM.1S cells, immunoblot; conditions: 5 μM, 0, 2, 4 or 6 h, FIG. 3
T1 construct: endogenous in cells; host or cells: MM.1S cells
Procedure: (§1) MM.1S cells were treated with 0, 0.1 μM, 1 μM, or 10 μM of compound 1 or compound 4 or 0.25 μM THAL-SNS-032 (a known CDK9 degrader, as a positive control for CDK9 degradation) for 16 hours. Cells were then lysed in RIPA buffer (Sigma) containing protease/phosphatase inhibitor cocktail (Roche). The protein concentrations were measured by bicinchoninic acid assay (BCA) analysis (Pierce™). Equal amounts of protein were resolved by 4-12% Tris-Base gels (Invitrogen), and then transferred to the Immuno-Blot polyvinylidene difluoride (PVDF) membrane (BioRad), and immunoblotted with primary antibodies against KEAP1 (cell signaling), CRBN (cell signaling), CDK9 (cell signaling) and R-Actin (cell signaling), and then immunoblotted with IRDye® 800-labeled goat anti-rabbit IgG and IRDye®800-labeled goat anti-mouse IgG (LI-COR) secondary antibodies. The membranes were detected on Odyssey CLx system.
(§2) Wild-type (WT) (left panel) or CRBN−/− (right panel) MM.1 S cells were treated with 0 or 5 μM compound 1 or compound 4 for 0, 2, 4, or 6 h. Cells were lysed and immunoblotted as described above with antibodies to KEAP1 (cell signaling) and R-Actin (cell signaling).

GSPT1 = target: T2, GSPT1 (Homo sapiens, UniProt P15170); assay: Off-target degradation in MM.1S cells, immunoblot: GSPT1; conditions: 5 μM, up to 6 h, FIG. 2
T2 construct: endogenous in cells; host or cells: MM.1S cells
Procedure: as §1
(§3) MM.1S cells were treated with 0 or 5 μM compound 1 or compound 4 for 0, 2, 4, or 6 h. Cells were lysed and immunoblotted as described above with antibodies to KEAP1 (cell signaling), CRBN (cell signaling), IKZF1 (cell signaling), IKZF3 (cell signaling), GSPT1 (abcam) and R-Actin (cell signaling).

KEAP1 [2] = target: T1, KEAP1; assay: KEAP1 degradation in CRBN−/− MM.1S cells, immunoblot; conditions: 5 μM, 0, 2, 4 or 6 h, FIG. 3
Procedure: as §1, §2

KEAP1 [3] = target: T1, KEAP1; assay: KEAP1 levels after washout in MM.1S cells, immunoblot; conditions: 5 μM for 2 h, washout at 2, 4, 7 and 24 hours, FIG. 5A/5B
Procedure: as §1
MM.1S cells were treated with 0 or 5 μM compound 1 for 2 h, followed by washout at 2, 4, 7, and 24 hours. Cells were lysed and immunoblotted as described above with antibodies to KEAP1 and β-Actin.
MM.1S cells were treated with 0 or 5 μM compound 4 for 2 h, followed by washout at 2, 4, 7, and 24 hours. Cells were lysed and immunoblotted as described above with antibodies to KEAP1 and β-Actin.

IKZF3 = target: T3, IKZF3 (Homo sapiens, UniProt Q9UKT9); assay: Off-target degradation in MM.1S cells, immunoblot: IKZF3; conditions: 5 μM, up to 6 h, FIG. 2
T3 construct: endogenous in cells; host or cells: MM.1S cells
Procedure: as §1, §3

KEAP1 [4] = target: T1, KEAP1; assay: Knockdown of KEAP1 in MM.1S cells, immunoblot, concentration series, 16 h; conditions: 0.1 μM, 1 μM or 10 μM, FIG. 1
Procedure: as §1

IKZF1 = target: T4, IKZF1 (Homo sapiens, UniProt Q13422); assay: Off-target degradation in MM.1S cells, immunoblot: IKZF1; conditions: 5 μM, up to 6 h, FIG. 2
T4 construct: endogenous in cells; host or cells: MM.1S cells
Procedure: as §1, §3

KEAP1 [5] = target: T1, KEAP1; assay: Rescue of degrader-induced KEAP1 degradation by pretreatment in MM.1S cells, immunoblot; conditions: pretreatment 2 h (10 μM DGY-03-118, 10 μM Lenalidomide, 0.5 μM Bortezomib, 1 μM MLN4924); for rescue of the KEAP1 degradation induced by compound 1: then 5 μM compound 1 for 2 h, FIG. 4A; for rescue of the KEAP1 degradation induced by compound 4: then 5 μM compound 4 for 2 h, FIG. 4B
Procedure: as §1
(§4) MM.1S cells were pretreated with 10 μM DGY-03-118 (the parental compound and known KEAP1 inhibitor), 10 μM Lenalidomide (CRBN ligand), 0.5 μM Bortezomib (a proteasome inhibitor) and 1 μM MLN4924 (a neddylation inhibitor) for 2 h, and then treated with 5 μM compound 1 for 2 h. Cells were lysed and immunoblotted as described above with antibodies to KEAP1 and β-Actin.
as §4, with “compound 4” for “compound 1”

CDK9 = target: T5, CDK9 (Homo sapiens, UniProt P50750+Q96SW2); assay: CDK9 degradation in MM.1S cells, immunoblot (positive control); conditions: 0.25 μM, 16 hours, FIG. 1
T5 construct: endogenous in cells; host or cells: MM.1S cells
Procedure: as §1

T1 sequence (Q14145 whole entry): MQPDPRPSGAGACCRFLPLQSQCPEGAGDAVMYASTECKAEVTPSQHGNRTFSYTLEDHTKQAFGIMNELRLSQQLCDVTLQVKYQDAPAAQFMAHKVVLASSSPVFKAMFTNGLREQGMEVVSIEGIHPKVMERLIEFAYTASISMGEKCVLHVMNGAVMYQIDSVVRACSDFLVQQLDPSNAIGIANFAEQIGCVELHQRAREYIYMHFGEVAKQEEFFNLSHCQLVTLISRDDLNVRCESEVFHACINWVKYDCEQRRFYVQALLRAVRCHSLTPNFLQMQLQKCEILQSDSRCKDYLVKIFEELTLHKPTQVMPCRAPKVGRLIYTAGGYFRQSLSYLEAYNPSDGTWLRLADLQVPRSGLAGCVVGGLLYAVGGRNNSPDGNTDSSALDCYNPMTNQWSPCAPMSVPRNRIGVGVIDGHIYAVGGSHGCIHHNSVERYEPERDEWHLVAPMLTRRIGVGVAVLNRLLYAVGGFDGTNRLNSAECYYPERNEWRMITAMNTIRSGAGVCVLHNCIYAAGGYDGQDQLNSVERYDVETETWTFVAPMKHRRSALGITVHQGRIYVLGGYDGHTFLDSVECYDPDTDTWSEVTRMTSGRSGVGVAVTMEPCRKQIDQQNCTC
T4 sequence (Q96SW2 whole entry partner): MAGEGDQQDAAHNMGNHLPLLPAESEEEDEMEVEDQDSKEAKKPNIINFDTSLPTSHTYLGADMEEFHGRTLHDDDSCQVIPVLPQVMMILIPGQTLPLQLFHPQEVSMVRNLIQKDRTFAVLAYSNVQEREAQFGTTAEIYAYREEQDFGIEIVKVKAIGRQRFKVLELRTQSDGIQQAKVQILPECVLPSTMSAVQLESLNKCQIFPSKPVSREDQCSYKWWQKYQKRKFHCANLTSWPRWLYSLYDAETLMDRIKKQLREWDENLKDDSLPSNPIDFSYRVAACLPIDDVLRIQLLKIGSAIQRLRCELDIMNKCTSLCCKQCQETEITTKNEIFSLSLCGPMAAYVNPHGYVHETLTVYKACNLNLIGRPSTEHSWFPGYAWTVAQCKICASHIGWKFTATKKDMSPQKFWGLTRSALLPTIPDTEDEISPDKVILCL
T4 sequence (Q16531 whole entry partner): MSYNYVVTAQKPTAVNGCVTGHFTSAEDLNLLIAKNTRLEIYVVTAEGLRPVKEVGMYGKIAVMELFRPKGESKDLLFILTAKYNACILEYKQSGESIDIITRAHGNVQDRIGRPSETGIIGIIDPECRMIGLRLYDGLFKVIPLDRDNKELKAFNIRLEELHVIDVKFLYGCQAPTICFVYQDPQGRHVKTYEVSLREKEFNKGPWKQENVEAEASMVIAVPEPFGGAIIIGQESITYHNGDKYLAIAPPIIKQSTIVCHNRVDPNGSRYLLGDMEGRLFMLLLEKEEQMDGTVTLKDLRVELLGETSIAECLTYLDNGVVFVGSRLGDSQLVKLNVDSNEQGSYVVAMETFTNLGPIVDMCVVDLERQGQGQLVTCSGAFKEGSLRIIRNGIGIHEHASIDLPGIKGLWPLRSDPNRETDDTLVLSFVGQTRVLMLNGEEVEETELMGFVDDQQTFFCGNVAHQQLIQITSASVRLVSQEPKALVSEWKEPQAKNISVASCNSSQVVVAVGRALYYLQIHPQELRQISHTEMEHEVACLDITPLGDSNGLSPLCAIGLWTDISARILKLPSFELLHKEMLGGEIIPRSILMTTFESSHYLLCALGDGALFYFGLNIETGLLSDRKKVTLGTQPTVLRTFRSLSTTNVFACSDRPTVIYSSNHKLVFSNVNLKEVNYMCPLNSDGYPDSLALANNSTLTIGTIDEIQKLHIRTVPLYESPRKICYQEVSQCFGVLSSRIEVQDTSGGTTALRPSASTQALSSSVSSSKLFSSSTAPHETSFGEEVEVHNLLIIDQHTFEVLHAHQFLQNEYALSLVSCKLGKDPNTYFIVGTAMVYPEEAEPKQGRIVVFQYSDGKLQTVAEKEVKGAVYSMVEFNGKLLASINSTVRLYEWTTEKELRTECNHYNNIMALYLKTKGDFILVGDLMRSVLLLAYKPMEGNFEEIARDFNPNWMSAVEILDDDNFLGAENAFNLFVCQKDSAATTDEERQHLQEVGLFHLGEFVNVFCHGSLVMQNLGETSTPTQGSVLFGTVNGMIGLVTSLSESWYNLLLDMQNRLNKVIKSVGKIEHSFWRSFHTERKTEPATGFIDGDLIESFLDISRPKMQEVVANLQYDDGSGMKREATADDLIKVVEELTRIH
T4 sequence (Q13422 whole entry): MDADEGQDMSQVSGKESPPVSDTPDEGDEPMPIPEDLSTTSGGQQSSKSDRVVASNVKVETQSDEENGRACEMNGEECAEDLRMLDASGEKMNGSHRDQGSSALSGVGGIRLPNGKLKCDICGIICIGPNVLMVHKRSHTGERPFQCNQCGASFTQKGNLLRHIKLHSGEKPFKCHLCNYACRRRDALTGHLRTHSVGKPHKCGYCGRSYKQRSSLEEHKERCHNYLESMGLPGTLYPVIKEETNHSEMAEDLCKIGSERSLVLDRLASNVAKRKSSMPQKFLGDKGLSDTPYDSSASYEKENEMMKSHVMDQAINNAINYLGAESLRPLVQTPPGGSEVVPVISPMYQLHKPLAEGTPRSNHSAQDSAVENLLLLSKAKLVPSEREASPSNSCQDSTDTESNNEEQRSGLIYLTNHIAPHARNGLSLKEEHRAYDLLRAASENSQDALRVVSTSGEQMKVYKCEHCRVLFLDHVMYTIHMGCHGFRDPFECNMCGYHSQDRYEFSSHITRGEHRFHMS
T2 sequence (Q96SW2 whole entry partner): as the sequence (Q96SW2 whole entry partner) above
T2 sequence (Q16531 whole entry partner): as the sequence (Q16531 whole entry partner) above
T2 sequence (P15170 whole entry): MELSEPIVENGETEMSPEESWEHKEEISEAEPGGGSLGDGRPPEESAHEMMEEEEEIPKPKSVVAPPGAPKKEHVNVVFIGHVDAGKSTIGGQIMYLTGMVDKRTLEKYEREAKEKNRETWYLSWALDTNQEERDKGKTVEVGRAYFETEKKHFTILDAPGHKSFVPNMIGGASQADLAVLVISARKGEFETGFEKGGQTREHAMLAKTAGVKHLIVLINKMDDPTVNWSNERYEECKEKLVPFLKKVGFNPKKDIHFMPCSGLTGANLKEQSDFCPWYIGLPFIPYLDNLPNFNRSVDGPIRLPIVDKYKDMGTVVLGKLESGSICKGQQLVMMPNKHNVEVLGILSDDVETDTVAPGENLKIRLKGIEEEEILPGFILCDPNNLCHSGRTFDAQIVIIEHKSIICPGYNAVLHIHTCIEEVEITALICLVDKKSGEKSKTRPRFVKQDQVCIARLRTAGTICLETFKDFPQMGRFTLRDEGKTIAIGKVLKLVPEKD
T3 sequence (Q96SW2 whole entry partner): as the sequence (Q96SW2 whole entry partner) above
T3 sequence (Q16531 whole entry partner): as the sequence (Q16531 whole entry partner) above
T3 sequence (Q9UKT9 whole entry): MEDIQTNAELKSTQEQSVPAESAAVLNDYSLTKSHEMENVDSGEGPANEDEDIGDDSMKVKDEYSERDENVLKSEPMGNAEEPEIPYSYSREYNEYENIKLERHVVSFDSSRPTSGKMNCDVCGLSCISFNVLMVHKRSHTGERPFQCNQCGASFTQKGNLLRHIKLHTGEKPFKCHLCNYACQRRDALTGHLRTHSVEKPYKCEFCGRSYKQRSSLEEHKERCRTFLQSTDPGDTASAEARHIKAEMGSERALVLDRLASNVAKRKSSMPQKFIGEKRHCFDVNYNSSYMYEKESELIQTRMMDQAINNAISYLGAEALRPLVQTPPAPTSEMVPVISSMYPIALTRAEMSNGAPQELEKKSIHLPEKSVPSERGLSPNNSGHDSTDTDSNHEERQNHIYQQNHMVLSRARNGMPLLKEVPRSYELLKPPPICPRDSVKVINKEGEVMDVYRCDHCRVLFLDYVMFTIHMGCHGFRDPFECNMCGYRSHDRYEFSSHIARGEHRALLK

`COc1cc(C(CC(=O)O)c2ccc(C)c(CN3C[C@@H](C)Oc4cc(CCCCCCNC(=O)COc5cc6c7c(cccc7c5)C(=O)N(C5CCC(=O)NC5=O)C6=O)ccc4S3(=O)=O)c2)cc2nnn(C)c12` (stereo partly drawn) [compound 4, 3-(3-(((4R)-7-(6-(2-((2-(2,6-dioxopiperidin-3-yl)-1,3-dioxo-2,3-dihydro-1H-benzo[de]isoquinolin-5-yl)oxy)acetamido)hexyl)-4-methyl-1,1-dioxido-3,4-dihydro-2H-benzo[b][1,4,5]oxathiazepin-2-yl)methyl)-4-methylphenyl)-3-(7-methoxy-1-methyl-1H-benzo[d][1,2,3]triazol-5-yl)propanoic Acid] was tested, and the “KEAP1 degradation in WT MM.1S cells” value (KEAP1 [1]) was “induced KEAP1 degradation”, the “degradation of potential off target GSPT1” value (GSPT1) was “did not induce the degradation” and the “KEAP1 degradation in CRBN−/− MM.1S cells” value (KEAP1 [2]) was “did not induce KEAP1 degradation”. For the same compound, the “KEAP1 levels after washout relative to vehicle-treated cells” value (KEAP1 [3]) was “remained below levels in vehicle-treated cells even 24 h after washout”, the “degradation of potential off target IKZF3” value (IKZF3) was “did not induce the degradation” and the “degradation of KEAP1” value (KEAP1 [4]) was “induced the degradation of KEAP1”. For the same compound, the “degradation of potential off target IKZF1” value (IKZF1) was “did not induce the degradation”.

`Nc1cccc2c1CN(C1CCC(=O)NC1=O)C2=O` (stereo not drawn) [Lenalidomide] was tested, and the “rescue of the KEAP1 degradation induced by compound 1” value (“rescue … by compound 1” below) (KEAP1 [5]) was “rescued the KEAP1 degradation” and the “rescue of the KEAP1 degradation induced by compound 4” value (“rescue … by compound 4” below) (KEAP1 [5]) was “rescued the KEAP1 degradation”.

In the case of `CC(C)(C)c1cnc(CSc2cnc(NC(=O)C3CCN(CC(=O)NCCOCCOCCOCCNc4cccc5c4C(=O)N(C4CCC(=O)NC4=O)C5=O)CC3)s2)o1` (stereo not drawn) [THAL-SNS-032], the CDK9 degradation (CDK9) is reported as “induced CDK9 degradation”.

With `COc1cc(C(CC(=O)O)c2ccc(C)c(CN3C[C@@H](C)Oc4cc(CCCCCCNC(=O)COc5cccc6c5C(=O)N(C5CCC(=O)NC5=O)C6=O)ccc4S3(=O)=O)c2)cc2nnn(C)c12` (stereo partly drawn) [compound 1, 3-(3-(((4R)-7-(6-(2-((2-(2,6-dioxopiperidin-3-yl)-1,3-dioxoisoindolin-4-yl)oxy)acetamido)hexyl)-4-methyl-1,1-dioxido-3,4-dihydro-2H-benzo[b][1,4,5]oxathiazepin-2-yl)methyl)-4-methylphenyl)-3-(7-methoxy-1-methyl-1H-benzo[d][1,2,3]triazol-5-yl)propanoic Acid] the “KEAP1 degradation in WT MM.1S cells” value (KEAP1 [1]) was “induced KEAP1 degradation”, the “degradation of potential off target GSPT1” value (GSPT1) was “did not induce the degradation” and the “KEAP1 degradation in CRBN−/− MM.1S cells” value (KEAP1 [2]) was “did not induce KEAP1 degradation”. The “KEAP1 levels after washout relative to vehicle-treated cells” value (KEAP1 [3]) was “remained below levels in vehicle-treated cells 4 h after washout”, the “degradation of potential off target IKZF3” value (IKZF3) was “did not induce the degradation” and the “degradation of KEAP1” value (KEAP1 [4]) was “induced the degradation of KEAP1”. The “degradation of potential off target IKZF1” value (IKZF1) was “did not induce the degradation”.

With `CC(C)C[C@H](NC(=O)[C@H](Cc1ccccc1)NC(=O)c1cnccn1)B(O)O` [Bortezomib] the “rescue … by compound 1” value (KEAP1 [5]) was “rescued the KEAP1 degradation” and the “rescue … by compound 4” value (KEAP1 [5]) was “rescued the KEAP1 degradation”.

In the case of `NS(=O)(=O)OC[C@@H]1C[C@@H](n2ccc3c(N[C@H]4CCc5ccccc54)ncnc32)C[C@@H]1O` [MLN4924], the “rescue … by compound 1” value (KEAP1 [5]) is reported as “rescued the KEAP1 degradation” and the “rescue … by compound 4” value (KEAP1 [5]) is reported as “rescued the KEAP1 degradation”.
